Earlier results, collected in patent US6518254B1, “Ribonucleoside-TRIBOSE” (priority 2002, dated 2003).

How the values were obtained:
[1] = compared with Ribavirin
DNA and RNA viruses = conditions: in vitro tissue culture; at least 16 DNA and RNA viruses; Science, 177, 705, 1972

Row | SMILES | immuno-modulatory activity [1] | antiviral activity in tissue culture (DNA and RNA viruses)
1 | NC(=O)c1ncn([C@H]2O[C@@H](CO)[C@H](O)[C@@H]2O)n1 (single isomer, unassigned) [L isomer of Ribavirin] | immuno-modulatory activity similar to Ribavirin | 
2 | NC(=O)c1ncn([C@@H]2O[C@H](CO)[C@@H](O)[C@H]2O)n1 [Ribavirin, 1-beta-D-ribofuranosyl-1H-1,2,4-triazole-3-carboxamide] |  | active against at least 16 DNA and RNA viruses
